Test results as given in PubChem BioAssay (NCI).
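Values below derive from 48-hour exposures of cells grown in 96-well plates, with endpoints linearly interpolated between the two concentrations bracketing the appropriate inhibition level. TGI: concentration producing complete growth inhibition.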 Where a SMILES comes first, the peptide text is derived from it. The star is where a group is joined. OBn = c1ccc(CO*)cc1

Experiments:
Test in all cases: DTP human tumour cell line panel, 48 h
[1] = system: OVCAR-8 ovarian
[2] = system: CAKI-1 renal
[3] = system: SK-MEL-28 melanoma
[4] = system: MALME-3M melanoma
[5] = system: UACC-62 melanoma
[6] = system: LOX IMVI melanoma
[7] = system: M14 melanoma
[8] = system: HOP-62 NSCLC
[9] = system: MDA-N
[10] = system: PC-3 prostate
[11] = system: DU-145 prostate
[12] = system: SW-620 colon
[13] = system: SN12C renal
[14] = system: BT-549 breast
[15] = system: SK-OV-3 ovarian
[16] = system: NCI-H23 lung
[17] = system: SK-MEL-5 melanoma
[18] = system: HL-60(TB) leukemia
[19] = system: OVCAR-4 ovarian
[20] = system: MDA-MB-435
[21] = system: UO-31 renal
[22] = system: NCI-H226 lung
[23] = system: COLO 205 colon
[24] = system: OVCAR-5 ovarian
[25] = system: RPMI-8226 leukemia
[26] = system: OVCAR-3 ovarian
[27] = system: RXF 393 renal
[28] = system: SNB-75 CNS
[29] = system: EKVX NSCLC
[30] = system: HCT-116 colon
[31] = system: SNB-19 CNS
[32] = system: HCC-2998 colon
[33] = system: MCF7 breast
[34] = system: U251 CNS
[35] = system: MOLT-4 leukemia
[36] = system: T-47D breast
[37] = system: NCI-H460 lung
[38] = system: TK-10 renal
[39] = system: NCI-H522 lung
[40] = system: NCI/ADR-RES ovarian
[41] = system: KM12 colon
[42] = system: IGROV1 ovarian
[43] = system: ACHN renal
[44] = system: A549 NSCLC
[45] = system: CCRF-CEM leukemia
[46] = system: SF-268 CNS
[47] = system: HCT-15 colon
[48] = system: MDA-MB-231 breast
[49] = system: SF-295 CNS
[50] = system: HOP-92 NSCLC
[51] = system: SR leukemia
[52] = system: 786-0 renal
[53] = system: HT29 colon
[54] = system: K-562 leukemia
[55] = system: HS 578T breast
[56] = system: UACC-257 melanoma
[57] = system: SK-MEL-2 melanoma

Measured: TGI

NC(CCC(=O)OCc1ccccc1)C(=O)NC(CCC(=O)OCc1ccccc1)C(=O)O (stereo unspecified) (H-Glu(OBn)-Glu(OBn)-OH; configuration not given here)
not listed: [56] | [57]
> 100 µM: all other assays above

CCOC(=O)c1cc2ncccc2c2ccccc12
not listed: [12]
> 100 µM: all other assays above
